Values quoted from earlier work, collected in patent US20210393726A1, “USE OF EXTRACT OF VEGETATION WATERS IN THE REGENERATION OF EPITHELIAL TISSUE” (FATTORIA LA VIALLAD DI GIANNI, ANTONIO E BANDINO LO FRANCO …, priority 2017, published 2021).

Conditions: high concentrations, up to 250-500 mg/kg/day

Q: With `OCCc1ccc(O)c(O)c1` [Hydroxytyrosol, hydroxytyrosol] as the molecule, how does the “toxic effect on in vivo administration” value read?
A: Its value is “does not have any toxic effect”.
